Our source for the IC50 values is US20150344427A1 (EPIZYME, INC., priority 2012, published 2015).

Structures are written as SMILES.

The test system of this assay is H3K27 trimethylation in WSU-DLCL2 cells. The assay is described as follows: WSU-DLCL2 Methylation Assay (H3K27me3 ELISA). Type of assay: cell-based. The note with it: Homo sapiens, WSUDLCL2, 96 hours incubation, H3K27me3 normalised to total Histone H3. The source says: WSU-DLCL2 suspension cells were purchased from DSMZ (German Collection of Microorganisms and Cell Cultures, Braunschweig, Germany). RPMI/Glutamax Medium, Penicillin-Streptomycin, Heat Inactivated Fetal Bovine Serum, and D-PBS were purchased from Life Technologies, Grand Island, N.Y., USA. Extraction Buffer and Neutralization Buffer (5×) were purchased from Active Motif, Carlsbad, Calif., USA. Rabbit anti-Histone H3 antibody was purchased from Abcam, Cambridge, Mass., USA. Rabbit anti-H3K27me3 and HRP-conjugated anti-rabbit-IgG were purchased from Cell Signaling Technology, Danvers, Mass., USA. TMB “Super Sensitive” substrate was sourced from BioFX Laboratories, Owings Mills, Md., USA. IgG-free Bovine Serum Albumin was purchased from Jackson ImmunoResearch, West Grove, Pa., USA. PBS with Tween (10×PBST) was purchased from KPL, Gaithersburg, Md., USA. Sulfuric Acid was purchased from Ricca Chemical, Arlington, Tex., USA. Immulon ELISA plates were purchased from Thermo, Rochester, N.Y., USA. V-bottom cell culture plates were purchased from Corning Inc., Corning, N.Y., USA. V-bottom polypropylene plates were purchased from Greiner Bio-One, Monroe, N.C., USA.
WSU-DLCL2 suspension cells were maintained in growth medium (RPMI 1640 supplemented with 10% v/v heat inactivated fetal bovine serum and 100 units/mL penicillin-streptomycin) and cultured at 37° C. under 5% CO2 Under assay conditions, cells were incubated in Assay Medium (RPMI 1640 supplemented with 20% v/v heat inactivated fetal bovine serum and 100 units/mL penicillin-streptomycin) at 37° C. under 5% CO2 on a plate shaker.
WSU-DLCL2 cells were seeded in assay medium at a concentration of 50,000 cells per mL to a 96-well V-bottom cell culture plate with 200 μL per well. Compound (1 μL) from 96 well source plates was added directly to V-bottom cell plate. Plates were incubated on a titer-plate shaker at 37° C., 5% CO2 for 96 hours. After four days of incubation, plates were spun at 241×g for five minutes and medium was aspirated gently from each well of cell plate without disturbing cell pellet. Pellet was resuspended in 200 μL DPBS and plates were spun again at 241×g for five minutes. The supernatant was aspirated and cold (4° C.) Extraction buffer (100 μL) was added per well. Plates were incubated at 4° C. on orbital shaker for two hours. Plates were spun at 3427×g×10 minutes. Supernatant (80 μL per well) was transferred to its respective well in 96 well V-bottom polypropylene plate. Neutralization Buffer 5× (20 μL per well) was added to V-bottom polypropylene plate containing supernatant. V-bottom polypropylene plates containing crude histone preparation (CHP) were incubated on orbital shaker x five minutes. Crude Histone Preparations were added (2 μL per well) to each respective well into duplicate 96 well ELISA plates containing 100 μL Coating Buffer (1×PBS+BSA 0.05% w/v). Plates were sealed and incubated overnight at 4° C. The following day, plates were washed three times with 300 μL per well 1×PBST. Wells were blocked for two hours with 300 μL per well ELISA Diluent ((PBS (1×) BSA (2% w/v) and Tween20 (0.05% v/v)). Plates were washed three times with 1×PBST. For the Histone H3 detection plate, 100 μL per well were added of anti-Histone-H3 antibody (Abcam, ab1791) diluted 1:10,000 in ELISA Diluent. For H3K27 trimethylation detection plate, 100 μL per well were added of anti-H3K27me3 diluted 1:2000 in ELISA diluent. Plates were incubated for 90 minutes at room temperature. Plates were washed three times with 300 μL 1×PBST per well. For Histone H3 detection, 100 μL of HRP-conjugated anti-rabbit IgG antibody diluted to 1:6000 in ELISA diluent was added per well. For H3K27me3 detection, 100 μL of HRP conjugated anti-rabbit IgG antibody diluted to 1:4000 in ELISA diluent was added per well. Plates were incubated at room temperature for 90 minutes. Plates were washed four times with 1×PBST 300 μL per well. TMB substrate 100 μL was added per well. […]
`CCN(c1cc(Cl)cc(C(=O)NCc2c(C)[nH]c(C)cc2=O)c1C)[C@H]1CC[C@H](N(C)C)CC1` [Compound 1, 5-chloro-N-((2,6-dimethyl-4-oxo-1,4-dihydropyridin-3-yl)methyl)-3-(((trans)-4-(dimethylamino)cyclohexyl)(ethyl)amino)-2-methylbenzamide] registered an IC50 of 8.44 µM. To `CCN(c1cc(Cl)cc(C(=O)NCc2c(C)n(C)c(C)cc2=O)c1C)[C@H]1CC[C@H](N(C)C)CC1` [Compound 86] belongs above 50 µM; to `CCn1c(C)cc(=O)c(CNC(=O)c2cc(Cl)cc(N(CC)[C@H]3CC[C@H](N(C)C)CC3)c2C)c1C` [Compound 87], above 50 µM. `CCN(c1cc(-c2ccc(COC)nc2)cc(C(=O)NCc2c(Cl)[nH]c(C)cc2=O)c1C)[C@H]1CC[C@H](N(C)C)CC1` [Compound 88] displayed an IC50 of 2.4 µM. To `CCN(c1cc(-c2cnn(C)c2)cc(C(=O)NCc2c(Cl)[nH]c(C)cc2=O)c1C)[C@H]1CC[C@H](N(C)C)CC1` [Compound 89] belongs 5.9 µM; to `CCN(c1cc(-c2ccc(C)nc2)cc(C(=O)NCc2c(Cl)[nH]c(C)cc2=O)c1C)[C@H]1CC[C@H](N(C)C)CC1` [Compound 90], 2.7 µM; to `CCN(c1cc(-c2cnc(C)cn2)cc(C(=O)NCc2c(Cl)[nH]c(C)cc2=O)c1C)[C@H]1CC[C@H](N(C)C)CC1` [Compound 91], 3.3 µM.

Consider `CCN(c1cc(-c2ccc(OCCOC)cc2)cc(C(=O)NCc2c(Cl)[nH]c(C)cc2=O)c1C)[C@H]1CC[C@H](N(C)C)CC1` [Compound 92], for which the IC50 was found to be 3.9 µM. On to `CCN(c1cc(-c2ccc(OCCOC)cc2)cc(C(=O)NCc2c(C)[nH]c(C)cc2=O)c1C)[C@H]1CC[C@H](N(C)C)CC1` [Compound 93], for which the IC50 was 1.7 µM. To `CCCN(c1cc(-c2ccc(OCCOC)cc2)cc(C(=O)NCc2c(C)[nH]c(C)cc2=O)c1C)[C@H]1CC[C@H](N(C)C)CC1` [Compound 94] belongs 5.1 µM; to `CCN(c1cc(-c2ccc(OCCOC)cc2)cc(C(=O)NCc2c(C)[nH]c(C)cc2=O)c1C)[C@H]1CC[C@H](N(C)CCOC)CC1` [Compound 100], 7.5 µM.
